Source: patent publication US20250011873A1, “ENDOCRINE TREATMENT OF HORMONE RECEPTOR POSITIVE BREAST CANCER TYPED AS HAVING A LOW RISK OF RECURRENCE” (Agendia N.V., priority 2021, published 2025)

Key:
[1] = test system: hormone-receptor (+) breast cancer; conditions: cited from earlier work
[2] = test system: hormone-receptor (+) breast cancer; test: NSABP B-42 randomized, double-blinded, placebo-controlled trial of extended adjuvant letrozole, analysed by MammaPrint risk group; assay type: in vivo, human; conditions: for HR, DFS: B-42 primary endpoint; for 10-year rate (%), letrozole arm (DFS rows: disease-free survival rate; DR/BCFI rows: event rate) / # Events (Letrozole): letrozole arm; for Abs. benefit (%): 10-year
Description: NSABP B42 (Mamounas et al., 2019. Lancet Oncol 20: 88-99) refers to a randomized, double-blinded, placebo-controlled clinical trial of extended adjuvant endocrine therapy (tx) with letrozole (L) in postmenopausal women with hormone-receptor (+) breast cancer (BC) who have completed previous adjuvant tx with an aromatase inhibitor (AI). A pre-treatment gene expression biomarker such as MammaPrint may identify breast cancers at risk of recurrence in years 5 to 10 after diagnosis, for whom EET will be beneficial.
The MammaPrint test uses the expression levels of 70 genes to assess a patient's risk of recurrence. For the primary analysis, patient tumor samples were classified into a High Risk or Low Risk group by the 0.00 threshold in the MammaPrint index (high up to and low above 0.00 index, respectively). Recently, a subgroup of ultralow tumors is defined by MammaPrint index>+0.355 (Esserman et al., 2017. JAMA Oncol 3: 1503-1510).
Population for all analyses was based on the intention-to-treat (ITT) principle: patients were analyzed according to their randomized treatment, regardless of what they actually receive. This ensures the strengths of randomization are kept (an equal balance of potential prognostic factors between both groups), but it estimates the treatment effect in clinical practice.
Within the total study population and within each treatment arm, univariate Cox Regression Analysis were performed for MammaPrint risk groups and all available clinical, pathological, therapeutic variables. Summary statistics from the Cox model included the number of patients analyzed, hazard ratio (with 95% confidence interval (CI)) of the comparison and the according p-value. A p-value less than 0.05 (two sided) was considered statistically significance.
Differences in primary and secondary endpoints between placebo and letrozole groups were assessed by stratified log-rank tests. Stratification factors included original stratification factors from the parent B-42 trial, i.e., pathological node status at diagnosis (negative vs positive), prior tamoxifen use (no vs yes), and lowest bone mineral density T score in the lumbosacral spine, total hip, or femoral neck (≤−2.0 or >−2.0 SD).
Multivariate Cox Regression Analysis were utilized to examine the interaction between EET treatment and MP Risk index. Secondary elaborated multivariate analyses were performed to examine interaction with MammaPrint, EET treatment and any clinical and pathologic variable. Summary statistics from these Cox models include the number of patients analyzed, hazard ratios (with 95% CI) of the comparisons and the according p-values.
The following event variables were used for appropriate analyses: • Distant Recurrence (DR): yes vs. no • Time to DR: continuous months • Overall Survival (OS): yes vs. no • Time to Death: continuous months • Disease Free Survival (DFS): yes vs. no • Time to DFS: continuous months • Breast Cancer Free Interval (BCFI): yes vs. no • Time to BCFI: continuous months
A Kaplan-Meier curve with corresponding Log-rank test was used to visualize the survival distribution function for each MammaPrint risk group. Cox PH models stratified by nodal status, prior tamoxifen use, and lowest bone mineral density T-score was used to explore the association among risk factors listed to survival outcomes. This was done for each treatment arm. Kaplan-Meier curves were also used to visualize the survival distribution function for each treatment group.
NSABP-B42 assessed the effect of 5 years of letrozole after 5 years of prior endocrine therapy in postmenopausal women with early stage hormone receptor positive (HR+) breast cancer. Randomization occurred five years after diagnosis.
There were 3,966 patients randomly assigned to placebo or letrozole. Among them, 63 were excluded due to either no clinical assessment or not being at risk for the primary DFS endpoint for the B-42 parent trial. Blocks were available for 2,339 patients who consented for future research. […]

[3] = test system: early-stage ER positive breast cancer; conditions: tamoxifen for five years; during the treatment period; cited from earlier work
[4] = BCFI, MP Risk Group H, letrozole vs placebo
[5] = BCFI, MP Risk Group L, letrozole vs placebo
[6] = BCFI, MP Risk Group LNUL, letrozole vs placebo
[7] = BCFI, MP Risk Group UL, letrozole vs placebo
[8] = DFS, MP Risk Group H, letrozole vs placebo
[9] = DFS, MP Risk Group L, letrozole vs placebo
[10] = DFS, MP Risk Group LNUL, letrozole vs placebo
[11] = DFS, MP Risk Group UL, letrozole vs placebo
[12] = DR, MP Risk Group H, letrozole vs placebo
[13] = DR, MP Risk Group L, letrozole vs placebo
[14] = DR, MP Risk Group LNUL, letrozole vs placebo
[15] = DR, MP Risk Group UL, letrozole vs placebo
[16] = all patients of the translational MP cohort, letrozole vs placebo

Q: With N#Cc1ccc(C(c2ccc(C#N)cc2)n2cncn2)cc1 [Letrozole, letrozole] as the compound, how does the “prolongation of disease-free survival (DFS)” value ([1]; NSABP B42, extended letrozole therapy compared to the placebo group (Mamounas et al., 2019)) read?
A: no statistically significant prolongation

Q: And the “reduction in distant recurrence (DR) in the letrozole arm” value ([1]; NSABP B42, extended letrozole vs placebo (Mamounas et al., 2019))?
A: 28%

Q: And the “HR, DFS” value ([2]; 6.9 years of median follow-up)?
A: 0.85

Q: And the “HR, DFS” value ([2]; updated results, 10.3 years of median follow-up)?
A: 0.85

Q: And the “reduction of distant recurrence (DR) in the letrozole arm” value ([2]; B-42 secondary endpoint)?
A: 28%

Q: What about the “10-year rate (%), letrozole arm (DFS rows: disease-free survival rate; DR/BCFI rows: event rate)” value ([2]; BCFI, MP Risk Group H) of the same compound?
A: 14.6%

Q: What about the “# Events (Letrozole)” value ([2]; BCFI, MP Risk Group H) of the same compound?
A: 42

Q: And the “HR (95% CI)” value [2, 4]?
A: 1.15

Q: And the “Abs. benefit (%)” value [2, 4]?
A: −3.0%

Q: And the “HR (95% CI)” value ([2]; BCFI, MP Risk Group H, letrozole vs placebo, listed as letrozole)?
A: 1.15 (0.74, 1.79)

Q: And the “10-year rate (%), letrozole arm (DFS rows: disease-free survival rate; DR/BCFI rows: event rate)” value ([2]; BCFI, MP Risk Group L)?
A: 8.4%

Q: What about the “# Events (Letrozole)” value ([2]; BCFI, MP Risk Group L) of the same compound?
A: 44

Q: And the “HR (95% CI)” value [2, 5]?
A: 0.51

Q: And the “Abs. benefit (%)” value [2, 5]?
A: 7.0%

Q: What about the “HR (95% CI)” value ([2]; BCFI, MP Risk Group L, letrozole vs placebo, listed as letrozole) of the same compound?
A: 0.51 (0.35, 0.74)

Q: And the “10-year rate (%), letrozole arm (DFS rows: disease-free survival rate; DR/BCFI rows: event rate)” value ([2]; BCFI, MP Risk Group LNUL)?
A: 8.7%

Q: What about the “# Events (Letrozole)” value ([2]; BCFI, MP Risk Group LNUL) of the same compound?
A: 36

Q: What about the “HR (95% CI)” value [2, 6] of the same compound?
A: 0.48

Q: And the “Abs. benefit (%)” value [2, 6]?
A: 7.9%

Q: What about the “HR (95% CI)” value ([2]; BCFI, MP Risk Group LNUL, letrozole vs placebo, listed as letrozole) of the same compound?
A: 0.48 (0.32-0.73)

Q: What about the “10-year rate (%), letrozole arm (DFS rows: disease-free survival rate; DR/BCFI rows: event rate)” value ([2]; BCFI, MP Risk Group UL) of the same compound?
A: 7.3%

Q: And the “# Events (Letrozole)” value ([2]; BCFI, MP Risk Group UL)?
A: 8

Q: And the “HR (95% CI)” value [2, 7]?
A: 0.67

Q: What about the “Abs. benefit (%)” value [2, 7] of the same compound?
A: 4.1%

Q: What about the “HR (95% CI)” value ([2]; BCFI, MP Risk Group UL, letrozole vs placebo, listed as letrozole) of the same compound?
A: 0.67 (0.28, 1.65)

Q: What about the “10-year rate (%), letrozole arm (DFS rows: disease-free survival rate; DR/BCFI rows: event rate)” value ([2]; DFS, MP Risk Group H) of the same compound?
A: 71.2%

Q: And the “# Events (Letrozole)” value ([2]; DFS, MP Risk Group H)?
A: 91

Q: What about the “HR (95% CI)” value [2, 8] of the same compound?
A: 1.10

Q: And the “Abs. benefit (%)” value [2, 8]?
A: −1.6%

Q: And the “HR (95% CI)” value ([2]; DFS, MP Risk Group H, letrozole vs placebo, listed as letrozole)?
A: 1.10 (0.82, 1.47)

Q: What about the “10-year rate (%), letrozole arm (DFS rows: disease-free survival rate; DR/BCFI rows: event rate)” value ([2]; DFS, MP Risk Group L) of the same compound?
A: 79.7%

Q: And the “# Events (Letrozole)” value ([2]; DFS, MP Risk Group L)?
A: 113

Q: What about the “HR (95% CI)” value [2, 9] of the same compound?
A: 0.67

Q: What about the “Abs. benefit (%)” value [2, 9] of the same compound?
A: 7.8%

Q: What about the “HR (95% CI)” value ([2]; DFS, MP Risk Group L, letrozole vs placebo, listed as letrozole) of the same compound?
A: 0.67 (0.52, 0.85)

Q: And the “10-year rate (%), letrozole arm (DFS rows: disease-free survival rate; DR/BCFI rows: event rate)” value ([2]; DFS, MP Risk Group LNUL)?
A: 78.9%

Q: And the “# Events (Letrozole)” value ([2]; DFS, MP Risk Group LNUL)?
A: 93

Q: What about the “HR (95% CI)” value [2, 10] of the same compound?
A: 0.64

Q: And the “Abs. benefit (%)” value [2, 10]?
A: 9.5%

Q: What about the “HR (95% CI)” value ([2]; DFS, MP Risk Group LNUL, letrozole vs placebo, listed as letrozole) of the same compound?
A: 0.64 (0.49, 0.83)

Q: What about the “10-year rate (%), letrozole arm (DFS rows: disease-free survival rate; DR/BCFI rows: event rate)” value ([2]; DFS, MP Risk Group UL) of the same compound?
A: 82.5%

Q: What about the “# Events (Letrozole)” value ([2]; DFS, MP Risk Group UL) of the same compound?
A: 20

Q: And the “HR (95% CI)” value [2, 11]?
A: 0.82

Q: And the “Abs. benefit (%)” value [2, 11]?
A: 1.8%

Q: What about the “HR (95% CI)” value ([2]; DFS, MP Risk Group UL, letrozole vs placebo, listed as letrozole) of the same compound?
A: 0.82 (0.45, 1.48)

Q: And the “10-year rate (%), letrozole arm (DFS rows: disease-free survival rate; DR/BCFI rows: event rate)” value ([2]; DR, MP Risk Group H)?
A: 4.9%

Q: And the “# Events (Letrozole)” value ([2]; DR, MP Risk Group H)?
A: 15

Q: What about the “HR (95% CI)” value [2, 12] of the same compound?
A: 0.65

Q: What about the “Abs. benefit (%)” value [2, 12] of the same compound?
A: 2.4%

Q: What about the “HR (95% CI)” value ([2]; DR, MP Risk Group H, letrozole vs placebo, listed as letrozole) of the same compound?
A: 0.65 (0.34, 1.24)

Q: What about the “10-year rate (%), letrozole arm (DFS rows: disease-free survival rate; DR/BCFI rows: event rate)” value ([2]; DR, MP Risk Group L) of the same compound?
A: 3.5%

Q: What about the “# Events (Letrozole)” value ([2]; DR, MP Risk Group L) of the same compound?
A: 20

Q: And the “HR (95% CI)” value [2, 13]?
A: 0.43

Q: What about the “Abs. benefit (%)” value [2, 13] of the same compound?
A: 3.7%

Q: And the “HR (95% CI)” value ([2]; DR, MP Risk Group L, letrozole vs placebo, listed as letrozole)?
A: 0.43 (0.25, 0.74)

Q: What about the “10-year rate (%), letrozole arm (DFS rows: disease-free survival rate; DR/BCFI rows: event rate)” value ([2]; DR, MP Risk Group LNUL) of the same compound?
A: 3.6%

Q: And the “# Events (Letrozole)” value ([2]; DR, MP Risk Group LNUL)?
A: 17

Q: What about the “HR (95% CI)” value [2, 14] of the same compound?
A: 0.42

Q: And the “Abs. benefit (%)” value [2, 14]?
A: 4.0%

Q: What about the “HR (95% CI)” value ([2]; DR, MP Risk Group LNUL, letrozole vs placebo, listed as letrozole) of the same compound?
A: 0.42 (0.23, 0.76)

Q: And the “10-year rate (%), letrozole arm (DFS rows: disease-free survival rate; DR/BCFI rows: event rate)” value ([2]; DR, MP Risk Group UL)?
A: 2.9%

Q: What about the “# Events (Letrozole)” value ([2]; DR, MP Risk Group UL) of the same compound?
A: 3

Q: What about the “HR (95% CI)” value [2, 15] of the same compound?
A: 0.53

Q: What about the “Abs. benefit (%)” value [2, 15] of the same compound?
A: 3.0%

Q: What about the “HR (95% CI)” value ([2]; DR, MP Risk Group UL, letrozole vs placebo, listed as letrozole) of the same compound?
A: 0.53 (0.13, 2.15)

Q: What about the “HR, rate of DR” value ([2]; Excluded B-42 cohort, letrozole vs placebo) of the same compound?
A: 0.92

Q: What about the “HR, BCFI” value ([2]; MP-H subgroup, after 5.2 years (time-dependent analysis)) of the same compound?
A: 2.77

Q: And the “HR, BCFI” value ([2]; MP-H subgroup, prior to 5.2 years (time-dependent analysis))?
A: 0.65

Q: And the “HR, BCFI” value ([2]; MP-L subgroup, after 5.2 years (time-dependent analysis))?
A: 0.37

Q: What about the “HR, BCFI” value ([2]; MP-L subgroup, prior to 5.2 years (time-dependent analysis)) of the same compound?
A: 0.65

Q: What about the “HR, breast cancer-free interval” value [2, 16] of the same compound?
A: 0.70 (0.53, 0.93)

Q: What about the “HR, disease-free survival” value [2, 16] of the same compound?
A: 0.81 (0.68, 0.98)

Q: With CC/C(=C(\c1ccccc1)c1ccc(OCCN(C)C)cc1)c1ccccc1 [tamoxifen] as the compound, how does the “reduction of recurrence rate compared to placebo” value [3] read?
A: 50%
